How the values were obtained:
[1] = system: female rat sexual proceptivity (NMB-inhibited); test: Inhibition of female rat proceptivity by i.c.v. NMB and its antagonism; type: in vivo; conditions: progesterone 0.5 mg s.c. 4 h; NMB 100 ng i.c.v. 10 min before test in progesterone-treated rats; Compound (1) 15 mg/kg i.p. 1 h before NMB (FIG. 5)
Procedure: Ovariectomised female rats (Sprague Dawley, obtained from Charles River, UK) were stereotaxically implanted (coordinates 0.89 mm behind Bregma, 1.3 mm lateral and 2.5 mm vertical) with stainless steel cannulae (6 mm long, O.D. 0.75 mm), held in place with dental cement. Animals were housed in groups of three and returned to a reversed lighting system of 12 h light:dark (lights off 5.00-17.00 h). Correct placement of the cannulae was assessed post-mortem. Rats were used for tests two weeks after ovariectomy (one week after cannulation). The experiments started at least 5 h into the dark period. Forty eight hours before tests, the animals were primed with 5 μg oestradiol benzoate (OB) (s.c, in corn oil) and adapted to the apparatus (in the absence of stimuli animals) for 10 min on 2 consecutive days prior testing. The 10 min test was carried out as previously described. The difference in the percentage of time spent investigating male minus female was calculated, out of the total time spent investigating stimuli.
Progesterone (Prog, 0.5 mg/0.1 ml) was dissolved in corn oil and administered subcutaneously (s.c.), 4 h before test, to induce proceptive behaviour. Compound (1) (15 mg/kg, i.p.) was dissolved in 50% 2-hydroxypropyl-β-cyclodextrin in saline and administered 1 h before the i.c.v. administration. Neuromedin B was obtained from Bachem, UK. It was dissolved in isotonic saline and administered i.c.v. over a 30 sec period, with the aid of a pump set to deliver a flow of 10 μl/min, 10 min before tests. The dosing volume was 5 μl/rat. Each rat received a total amount of 100 ng.

[2] = system: sexual behaviour of sexually dysfunctional male rats; test: Sexual behaviour of fluoxetine-induced sexually dysfunctional male rats; type: in vivo, rat
Procedure: Sprague Dawley male rats (Charles River, UK) were kept, 4 rats per cage, in a reversed lighting regime (12:12 hours, lights off at 5.00 h), with free access to food and water. The rats were pre-selected by being presented with a receptive female at 4 days intervals, i.e. every third day (having 2 clear days between presentations) until completing 6-7 trials of baseline determination. The animals showing consistently vigorous behaviour (ejaculatory latencies <300s) were chosen for further experiments. Animals were treated for 3 consecutive days with either vehicle (water) or fluoxetine (20 mg/kg, i.p., in a 2 ml/kg dosing volume). On the fourth day, the animals treated with water received vehicle (veh+veh) and the animals treated with fluoxetine received one of the three following treatments: Compound (1) (15 mg/kg, dissolved in 50% 2-hydroxypropyl-β-cyclodextrin in saline), vehicle (cyclodextrine), or yohimbine (2 mg/kg dissolved in water). All treatments were administered i.p. in a 1 ml/kg volume, 1 h before tests.
(§1) For all the sexual behaviour tests, the males were placed in an observation arena (50-60 cm diameter), starting 5 hours into the dark cycle and observed under red illumination. Three to 4 minutes after placing the male in the arena, a receptive female (ovariectomised, bearing a 7 mm Silastic implant of oestradiol benzoate) was introduced to the arena and the following parameters noted: Mount Latency: time (in seconds) taken between introduction of female and first mount. A maximum time of 15 minutes (900 seconds) was allowed, and the test terminated if no mounts were recorded within that time (FIG. 16), Ejaculation Latency: time (in seconds) taken from first intromission to ejaculation. A maximum time of 30 minutes (1800 seconds) was given, and the test terminated if ejaculation was not achieved in that time (FIG. 17), Percentage of males achieving ejaculation within 30 minutes was calculated (FIG. 18).
A one-way ANOVA followed by Dunnett's t test was used to compare the fluoxetine+vehicle group and other groups for mount and ejaculatory latencies. Percentage of animals ejaculating was analysed using a Chi-square test followed by Fisher's test. (*: P<0.05, **: P<0.01, ***: P<0.001; n=15-19).

[3] = system: female rat sexual proceptivity; test: Female rat sexual proceptivity test (time investigating male vs female stimulus); type: in vivo; conditions: Compound (1) 15 mg/kg i.p. 1 h before test; progesterone 0.5 mg s.c. 4 h before test (FIG. 3)
Procedure: Ovariectomised adult female Sprague Dawley rats (180-200 g, from Charles River) were housed in groups of 6 in a reversed lighting system of 12 h light:dark (lights off 7.00-19.00 h). Two weeks after ovariectomy they were used for sexual activity tests. The experiments started at least 5 h into the dark period.
Tests were carried out in a circular arena of 90 cm diameter, surrounded by a 30 cm high wall. Two small cages with wire-mesh front (15×15 cm) are fixed into the wall such that the front of the cage is <> with the wall and the 2 cages are opposite each other. They contained two stimuli animals: an intact sexually experienced male and a receptive female (ovariectomised, primed with 5 μg oestradiol benzoate dissolved in corn oil and injected subcutaneously 48 hours before the test and with 0.5 mg of progesterone four hours before the test). Sexually naive test and control animals were used. Forty eight hours before the tests, both the test and control animals were primed with 5 μg oestradiol benzoate. For animals used as positive controls, progesterone (0.5 mg/0.1 ml) was dissolved in corn oil and administered subcutaneously (s.c.), 4 h before the test. Test and control animals were introduced one at a time for 10 minute periods into the arena. During the 10 min test, the time that the test or positive control animal spent investigating each stimulus animal was noted. The arena was thoroughly cleaned between animals. The position of the male/female stimuli boxes was randomised between animals, in order to avoid place preference. The difference in the percentage of time spent investigating the male minus the female stimuli was calculated, out of the total time spent investigating stimuli animals.
Compound (1) was dissolved in 100% β-cyclodextrin and then diluted with saline to a final solution of 50% 2-hydroxypropyl-β-cyclodextrin. It was administered intraperitoneally (i.p.) at doses of 3 and 10 mg/kg, in a dosing volume of 1 ml/kg, 1 h before tests. Progesterone (0.5 mg/0.1 ml) was dissolved in corn oil and administered subcutaneously (s.c.), 4 h before test, as a positive control.
Ovariectomised adult female Sprague Dawley rats (180-200 g) were housed in groups of 5 in a reversed lighting system of 12 h light:dark (lights off 5.00-17.00 h). They were used for the experiments at least two weeks after ovariectomy. Forty eight hours before tests, the animals were primed with oestradiol benzoate (5 μg/[…] in corn oil, s.c.). On day 1, progesterone (0.5 mg/0.1 ml, in corn oil, s.c.) was administered to one of the groups 4 h before tests, as a positive control. Compound (1) (15 mg/kg, i.p.) was administered in 50% 2-hydroxypropyl-β-cyclodextrin, 1 h before tests. The test lasted 10 minutes and was carried out as described before. The difference in the percentage of time spent investigating the male minus the female stimuli was calculated, out of the total time spent investigating stimuli animals. Animals were submitted to a test on day 1 and on day 15. From day 2 to 14 the Compound (1) group received a daily injection of the compound (15 mg/kg, i.p.), while both the vehicle and the progesterone groups received an injection of vehicle. On day 15 the test took place again, as described for day 1.
Ovariectomised female rats (Sprague Dawley, obtained from Charles River, UK) were stereotaxically implanted (coordinates 0.89 mm behind Bregma, 1.3 mm lateral and 2.5 mm vertical) with stainless steel cannulae (6 mm long, O.D. 0.75 mm), held in place with dental cement. Animals were housed in groups of three and returned to a reversed lighting system of 12 h light:dark (lights off 5.00-17.00 h). Correct placement of the cannulae was assessed post-mortem. Rats were used for tests two weeks after ovariectomy (one week after cannulation). The experiments started at least 5 h into the dark period. […]

[4] = Plasma sexual hormone levels in ovariectomised female rats (radioimmunoassay); type: in vivo, rat; conditions: Compound (1) 3-10 mg/kg i.p. 1 h, progesterone 0.5 mg s.c. 4 h before blood collection
Procedure: Ovariectomised adult female Sprague Dawley rats (180-200 g) were housed in groups of 6 in a reversed lighting system of 12 h light:dark (lights off 7.00-19.00 h). They were used for the experiments at least two weeks after ovariectomy. Forty eight hours before tests, the animals were primed with oestradiol benzoate (5 μg/0.1 ml in corn oil, s.c.). Progesterone (0.5 mg/0.1 ml, in corn oil, s.c.) was administered 4 h before blood collection, as a positive control. Compound (1) (3-10 mg/kg, i.p.) was administered in 50% 2-hydroxypropyl-β-cyclodextrin, 1 h prior to blood collection. Blood was collected from the trunk, after decapitation. It was immediately centrifuged (3500 r.p.m., 4° C., 5 min) and the plasmas frozen until assayed for hormonal content, using commercially available radioimmunoassay kits (^125I-labelled hormones) for oestradiol, progesterone, LH, FSH and prolactin.

[5] = system: sexual behaviour of normal male rats; test: Sexual behaviour of normal (sexually vigorous) male rats; type: in vivo, rat; conditions: Compound (1) 15 mg/kg or Fluoxetine 20 mg/kg i.p. 1 h before test
Procedure: The potentially stimulatory effect of Compound (1) on male sexual behaviour has been tested on sexually vigorous rats. Sprague Dawley male rats (Charles River, UK) were kept, 4 rats per cage, in a reversed lighting regime (12:12 hours, lights off at 5.00 h), with free access to food and water. The rats were pre-selected by being presented with a receptive female at 4 days intervals, i.e. every third day (having 2 clear days between presentations) until completing 6-7 […] of baseline determination. The animals showing consistently vigorous behaviour (ejaculatory latencies <300s) were chosen for further experiments (n—24). Animals were randomised into three groups. All animals received all three treatments following a latin-square design. Treatments were administered once a week, with a baseline test in between treatments (4 days intervals between baseline and test day). Treatments were Compound (1) (15 mg/kg, dissolved in 50% 2-hydroxypropyl-β-cyclodextrin in saline), vehicle, or Fluoxetine (20 mg/kg dissolved in 100% DMSO). All treatments were administered i.p. in a 1 ml/kg volume, 1 h before tests.
as §1, with “11), Intromission Latency: time (in seconds) taken between introduction of female and first intromission (FIG. 12), Number of Mounts: to reach ejaculation. When ejaculation was not reached, the number of mounts was not analyzed, Number of Intromissions: to reach ejaculation. When ejaculation was not reached, the number of intromissions was not analyzed (FIG. 13 is number of mounts+intromissions),” for “16),”, “14), and Refractory Period: time (in seconds) taken from ejaculation to the first mount” for “17), Percentage”, “the next series of sexual activity. In those animals reaching” for “males achieving”, “the test” for “within 30 minutes”, “terminated at the end of the refractory period, as indicated by the first mount of the next sexual cycle” for “calculated”, “15).” for “18).”
A one-way ANOVA followed by Dunnett's t test was used to compare treated vs vehicle groups each day of testing, for all the sexual behaviour parameters. (*P<0.05, **P<0.01; n=15-16).

[6] = fluoxetine 20 mg/kg i.p. for 3 consecutive days, vs vehicle+vehicle group

neuromedin B [NMB]
proceptivity (percentage of time investigating male minus female stimulus) [1]: significantly reduced proceptivity

COC(=O)[C@@H]1[C@H]2C[C@H]3c4[nH]c5ccccc5c4CCN3C[C@@H]2CC[C@@H]1O [Yohimbine, yohimbine]
Mount Latency ([2]; fluoxetine-pretreated rats, Compound (1) 15 mg/kg or yohimbine 2 mg/kg i.p. 1 h before test, vs fluoxetine+vehicle (FIG. 16)): followed a similar trend, although this did not reach significance | Ejaculation Latency ([2]; fluoxetine-pretreated rats, Compound (1) 15 mg/kg or yohimbine 2 mg/kg i.p. 1 h before test, vs fluoxetine+vehicle (FIG. 17)): followed a similar trend, although this did not reach significance | percentage of animals ejaculating ([2]; fluoxetine-pretreated rats, Compound (1) 15 mg/kg or yohimbine 2 mg/kg i.p. 1 h before test, vs fluoxetine+vehicle (FIG. 18)): followed a similar trend, although this did not reach significance

CC(=O)[C@H]1CC[C@H]2[C@@H]3CCC4=CC(=O)CC[C@]4(C)[C@H]3CC[C@]12C [progesterone, reference compound]
proceptivity on day 1 vs vehicle [3]: stimulatory effect on proceptivity | proceptivity (percentage of time investigating male minus female stimulus) [1]: increased the percentage of time spent investigating the male stimulus | plasma levels of progesterone ([4]; vs vehicle (FIG. 6)): significant increase in the progesterone plasma levels | plasma levels of LH ([4]; vs vehicle (FIG. 9)): significant decrease in LH plasma levels

CNCCC(Oc1ccc(C(F)(F)F)cc1)c1ccccc1 (stereo not shown) [Fluoxetine, reference compound]
Mount Latency ([5]; vs vehicle (FIG. 11)): significantly increased | Intromission Latency ([5]; vs vehicle (FIG. 12)): significantly increased | number of mounts and intromissions required to achieve ejaculation ([5]; vs vehicle (FIG. 13)): No changes | Ejaculation Latency ([5]; vs vehicle (FIG. 14)): also increased | Refractory Period ([5]; vs vehicle (FIG. 15)): also increased | Ejaculation Latency [2, 6]: significantly increased | Mount Latency [2, 6]: significantly increased | number of animals ejaculating [2, 6]: significantly lower
